Where two headings read alike, the source gives them in different places.
Experiments:
A-72 cells = assay: Cytotoxicity of ranpirnase in A-72 cells (morphology); details: any of the concentrations tested, 4 days
tRNA = details: Lin et al., 1994; cited from earlier work
RSV A2 = assay: RSV yield in NHBE cells (titers in MA-104 cells); assay type: cell-based; details: all treatments (5 μM, 0.5 μM, 0.1 μM), 48 hours post infection
VEEV = assay type: cell-based
NHBE cells [1] = assay: Microscopy evaluation of treated NHBE cells (RV-14 study toxicity controls)
vaccinia, strain WR = assay: microbe, parasite or virus in culture; assay type: cell-based; details: read-out: EC50 (concentration reducing plaque numbers by 50%)
RV-14 (strain 1059) = assay: RV-14 yield in NHBE cells (titers in HeLa-Ohio-1 cells); assay type: cell-based, rhinovirus-14
NHBE cells [2] = test system: NHBE cells
[3] = test system: influenza A/California/07/2009(H1N1)pdm09 virus; assay type: cell-based
NHBE cells [4] = test system: NHBE cells; remark: listed apart in the source
[5] = test system: adenovirus 2, strain Miller; assay: Adenovirus yield in NHBE cells (titers in A-549 cells); assay type: cell-based; details: for reduction in virus titers: vs untreated infected controls
MERS-CoV virus = assay type: cell-based
NHBE cells [6] = assay: Microscopy evaluation of treated NHBE cells (RSV study toxicity controls); details: sham infected
Vero 76 cells = assay: Toxicity in Vero 76 cells (crystal violet staining density)

ranpirnase
cytotoxic effect (visual morphology) (A-72 cells): no apparent cytotoxic effect
SI (CC50/IC50) (EBOV): 40-77
inhibition of EBOV (EBOV): robust inhibition
degradation of tRNA (tRNA): degrades tRNA very effectively
reduction in virus titers compared to untreated, infected controls (RSV A2): 2.3 log
virus titers after treatment (RSV A2): undetectable levels
inhibition of VEEV (VEEV): robust inhibition
microscopy evaluation of treated NHBE cells (toxicity) (NHBE cells [1]): no toxicological phenomena
EC50 (vaccinia, strain WR): 3.8 µM
reduction in virus titers (RV-14 (strain 1059); 1 μM, 4 days post infection): ~1 log
drop in virus titer (RV-14 (strain 1059); 5 μM, 4 days post infection): ~1.67 log 10
drop in virus titer (RV-14 (strain 1059); 10 μM, 4 days post infection): ~1.67 log 10
drop in virus titer (RV-14 (strain 1059); 50 μM, 4 days post infection): ~1.67 log 10
viability of NHBE cells (NHBE cells [2]): did not decrease the viability
activity against influenza A/California/07/2009(H1N1)pdm09 virus (virus titer) [3]: statistically significant and dose-dependent
microscopy evaluation of treated NHBE cells (toxicity) (NHBE cells [4]): no toxicological phenomena
reduction in virus titers ([5]; 5 μM): ~1 log
reduction in virus titers ([5]; 10 μM): ~1 log
drop in virus titer ([5]; 50 μM, vs placebo): approximately three
virus titers after treatment ([5]; all treatments except the lowest dose): undetectable levels
SI (CC50/IC50) (CHIV): over 18
inhibition of CHIV (CHIV): robust inhibition
activity against MERS-CoV virus compared with SARS protease inhibitor and Infergen (viral titer) (MERS-CoV virus): far more active
microscopy evaluation of treated NHBE cells (toxicity) (NHBE cells [6]): no toxicological phenomena
toxicity (Vero 76 cells; 100 μM): not toxic
toxicity (Vero 76 cells; dilutions used in the assay): Neither ranpirnase nor cidofovir was toxic

CCOC(=O)c1ccc(OCCC2CCN(c3ccc(C)nn3)CC2)cc1 [pirodavir, reference compound]
microscopy evaluation of treated NHBE cells (toxicity) (NHBE cells [1]): no toxicological phenomena
activity against RV-14 (RV-14 (strain 1059); 0.0032 μg/ml, NHBE cells): inactive
inhibition of virus replication (positive control) (RV-14 (strain 1059); 10 and 3.2 μg/ml): inhibited virus replication as expected

Nc1ccn([C@H]2CC[C@@H](CO)O2)c(=O)n1 [2′3′-dideoxycytidine, reference compound]
microscopy evaluation of treated NHBE cells (toxicity) (NHBE cells [4]): no toxicological phenomena
inhibition of virus replication (positive control) ([5]; NHBE cells, adenovirus MOI 0.1): inhibited virus replication as expected
microscopy evaluation of treated NHBE cells (toxicity) (NHBE cells [6]): no toxicological phenomena

Nc1ccn(C[C@@H](CO)OCP(=O)(O)O)c(=O)n1 [cidofovir, reference compound]
EC50 (vaccinia, strain WR; Orthopoxvirus vaccinia, Vero 76, 48 h): 10 µM
toxicity (Vero 76 cells; dilutions used in the assay): Neither ranpirnase nor cidofovir was toxic

From patent US9919034B2, “Methods of treating and prophylactically protecting mammalian patients infected by viruses classified in Baltimore group V” (priority 2014, dated 2018)
